Square brackets hold non-standard residues; d marks the D form. Peptide text beside a SMILES is read from it. Tyr(3-NO2) = N[C@@H](Cc1ccc(O)c([N+](=O)[O-])c1)C(=O)O
Legend:
[1] = target: T1, Trypsin (Sus scrofa, UniProt P00761); assay: Trypsin cleavage of C-terminal quantification tag -SA-nitroTyr-G from peptides, LC-MS with UV detection at 350 nm; format: biochemical; settings: after reduction and alkylation, trypsin enzyme/substrate 1:50 over night at RT
T1 construct: purchased Promega Corporation V511
Experimental: 23 peptides carrying the C-terminal quantification-tag-SA-nitroTyr-G-OH (SEQ ID NO:2) were synthesized by Fmoc-based solid phase peptide synthesis and purified by HPLC. Each peptide was subjected to the following trypsin cleavage protocol:
(§1) Trypsin Activation: Trypsin (20 μg, sequencing grade modified trypsin, Promega Corporation, Madison, Wis., USA, catalogue no. V511, specific activity 16.965 u/mg) was dissolved in Trypsin resuspension buffer (200 μL, Promega, catalogue no. V542A, ingredient 50 mM acetic acid) and incubated for 15 min at 37° C.
(§2) Reduction and alkylation: The peptide (approx. 0.05 mg) was dissolved in 1 M urea and 100 mM fresh ammonium hydrogen carbonate (300 μL). TCEP (Tris(2-carboxyethyl) phosphine hydrochloride, 0.2 M, 7.5 μL, final concentration 5 mM) was added and the solution incubated at 37° C. for 1 h. After addition of iodoacetamide (0.5 M, 6.0 μL, final concentration 10 mM) the solution was incubated at RT in the dark for another 30 min. Digestion: The sample was digested with activated Trypsin solution (10 μL per well, 1.0 μg, resulting enzyme/substrate ratio 1:50) over night at RT. To stop the digestion, HCl (2 M, 8 μL final concentration 50 mM) and TFA (3.2 μL, final concentration 1%, pH<2) were added. Finally, the sample was analyzed by LC-MS at 350 nm.

[2] = target: T1, Trypsin; assay: Trypsin cleavage of N-terminal quantification tag Ac-nitroTyr-SGK- from peptides, LC-MS with UV detection at 350 nm; format: biochemical; settings: for cleavage efficiency in words: trypsin; for Kusebauch 24 h, RT: Percent Cleavage of Tag [by UV350 - Peptide-Tag vs. Tag]: trypsin protocol of example 9, 24 h
Experimental: as §1, §2
38 peptides carrying the N-terminal quantification-tag Ac-nitroTyr-SGK-(SEQ ID NO:32) were synthesized by SPOT synthesis (Table 3). The peptide sequences are based on two different amino acid sequences, which in each case contain 19 different amino acids N-terminally attached to lysine (the 20 naturally occurring amino acids except cysteine).
All peptides were subjected to the same trypsin cleavage protocol as described in example 9. It is apparent that the quantification tag is efficiently cleaved (>99%) in nearly all cases.

T1 sequence (P00761 9-231): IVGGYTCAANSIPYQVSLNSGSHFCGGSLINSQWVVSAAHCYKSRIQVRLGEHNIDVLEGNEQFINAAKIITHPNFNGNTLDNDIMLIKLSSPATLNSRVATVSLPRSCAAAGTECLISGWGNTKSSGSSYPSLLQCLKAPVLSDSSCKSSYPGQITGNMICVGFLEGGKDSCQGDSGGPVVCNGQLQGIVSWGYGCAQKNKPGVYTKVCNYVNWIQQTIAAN

Structure (SMILES) | Percent Cleavage of Tag [by UV at 350 nm] [1] | cleavage efficiency in words [2] | Kusebauch 24 h, RT: Percent Cleavage of Tag [by UV350 - Peptide-Tag vs. Tag] [2]
CC(C)C[C@H](N)C(=O)N1CCC[C@H]1C(=O)N[C@@H](CC(N)=O)C(=O)NCC(=O)N[C@H](C(=O)N[C@@H](Cc1ccccc1)C(=O)N[C@H](C(=O)N1CCC[C@H]1C(=O)N[C@@H](CC(=O)O)C(=O)N[C@@H](Cc1ccccc1)C(=O)N[C@@H](CCC(N)=O)C(=O)N[C@@H](CCC(=O)O)C(=O)N[C@@H](Cc1ccccc1)C(=O)N[C@H](C(=O)N[C@@H](CC(N)=O)C(=O)N[C@@H](CCCCN)C(=O)N[C@@H](CO)C(=O)N[C@@H](C)C(=O)N[C@@H](Cc1ccc(O)c([N+](=O)[O-])c1)C(=O)NCC(=O)O)C(C)C)[C@@H](C)O)C(C)C [LPNGVFTPDFQEFVN-K-SA-nitroTyr-G] (H-LPNGVFTPDFQEFVNKSA[Tyr(3-NO2)]G-OH) | 95.4% | – | –
CC[C@H](C)[C@H](NC(=O)[C@@H](NC(=O)[C@@H](N)CO)C(C)C)C(=O)N[C@@H](CC(=O)O)C(=O)N1CCC[C@H]1C(=O)N[C@H](C(=O)N1CCC[C@H]1C(=O)N[C@@H](C)C(=O)N1CCC[C@H]1C(=O)N[C@H](C(=O)NCC(=O)N[C@@H](CC(=O)O)C(=O)N[C@@H](CO)C(=O)N[C@@H](Cc1c[nH]cn1)C(=O)N[C@H](C(=O)N[C@@H](CC(=O)O)C(=O)NCC(=O)N[C@@H](C)C(=O)N[C@@H](C)C(=O)N[C@@H](CCCCN)C(=O)N[C@@H](CO)C(=O)N[C@@H](C)C(=O)N[C@@H](Cc1ccc(O)c([N+](=O)[O-])c1)C(=O)NCC(=O)O)C(C)C)C(C)C)C(C)C [Peptide 2] (H-SVIDPVPAPVGDSHVDGAAKSA[Tyr(3-NO2)]G-OH) | 100% | – | –
CC[C@H](C)[C@H](NC(=O)[C@H](Cc1ccccc1)NC(=O)[C@H](Cc1ccc(O)cc1)NC(=O)[C@H](Cc1c[nH]cn1)NC(=O)[C@@H](NC(=O)[C@H](CC(=O)O)NC(=O)[C@H](CCCCN)NC(=O)CNC(=O)[C@H](CO)NC(=O)[C@H](Cc1ccc(O)c([N+](=O)[O-])c1)NC(C)=O)[C@@H](C)O)C(=O)N[C@@H](CC(=O)O)C(=O)N[C@@H](CC(C)C)C(=O)N[C@@H](CC(N)=O)C(=O)N[C@@H](CCCCN)C(=O)O [Peptide 3, Ac-nitroTyr-SGKDTHYFIDLN-K-OH] (Ac-[Tyr(3-NO2)]SGKDTHYFIDLNK-OH) | 100% | not efficiently cleaved | 60.2%
CC[C@H](C)[C@H](NC(=O)[C@H](Cc1ccccc1)NC(=O)[C@H](Cc1ccc(O)cc1)NC(=O)[C@H](Cc1c[nH]cn1)NC(=O)[C@@H](NC(=O)[C@H](CCC(=O)O)NC(=O)[C@H](CCCCN)NC(=O)CNC(=O)[C@H](CO)NC(=O)[C@H](Cc1ccc(O)c([N+](=O)[O-])c1)NC(C)=O)[C@@H](C)O)C(=O)N[C@@H](CC(=O)O)C(=O)N[C@@H](CC(C)C)C(=O)N[C@@H](CC(N)=O)C(=O)N[C@@H](CCCCN)C(=O)O [Peptide 4, Ac-nitroTyr-SGKETHYFIDLN-K-OH] (Ac-[Tyr(3-NO2)]SGKETHYFIDLNK-OH) | 100% | – | 100.0%
CC[C@H](C)[C@H](NC(=O)[C@H](Cc1ccccc1)NC(=O)[C@H](Cc1ccc(O)cc1)NC(=O)[C@H](Cc1c[nH]cn1)NC(=O)[C@@H](NC(=O)[C@H](Cc1ccccc1)NC(=O)[C@H](CCCCN)NC(=O)CNC(=O)[C@H](CO)NC(=O)[C@H](Cc1ccc(O)c([N+](=O)[O-])c1)NC(C)=O)[C@@H](C)O)C(=O)N[C@@H](CC(=O)O)C(=O)N[C@@H](CC(C)C)C(=O)N[C@@H](CC(N)=O)C(=O)N[C@@H](CCCCN)C(=O)O [Peptide 5, Ac-nitroTyr-SGKFTHYFIDLN-K-OH] (Ac-[Tyr(3-NO2)]SGKFTHYFIDLNK-OH) | 100% | – | 99.0%
CC[C@H](C)[C@H](NC(=O)[C@H](Cc1ccccc1)NC(=O)[C@H](Cc1ccc(O)cc1)NC(=O)[C@H](Cc1c[nH]cn1)NC(=O)[C@@H](NC(=O)CNC(=O)[C@H](CCCCN)NC(=O)CNC(=O)[C@H](CO)NC(=O)[C@H](Cc1ccc(O)c([N+](=O)[O-])c1)NC(C)=O)[C@@H](C)O)C(=O)N[C@@H](CC(=O)O)C(=O)N[C@@H](CC(C)C)C(=O)N[C@@H](CC(N)=O)C(=O)N[C@@H](CCCCN)C(=O)O [Peptide 6, Ac-nitroTyr-SGKGTHYFIDLN-K-OH] (Ac-[Tyr(3-NO2)]SGKGTHYFIDLNK-OH) | 100% | – | 100.0%
CC[C@H](C)[C@H](NC(=O)[C@H](Cc1ccccc1)NC(=O)[C@H](Cc1ccc(O)cc1)NC(=O)[C@H](Cc1c[nH]cn1)NC(=O)[C@@H](NC(=O)[C@@H](NC(=O)[C@H](CCCCN)NC(=O)CNC(=O)[C@H](CO)NC(=O)[C@H](Cc1ccc(O)c([N+](=O)[O-])c1)NC(C)=O)[C@@H](C)CC)[C@@H](C)O)C(=O)N[C@@H](CC(=O)O)C(=O)N[C@@H](CC(C)C)C(=O)N[C@@H](CC(N)=O)C(=O)N[C@@H](CCCCN)C(=O)O [Peptide 8, Ac-nitroTyr-SGKITHYFIDLN-K-OH] (Ac-[Tyr(3-NO2)]SGKITHYFIDLNK-OH) | 100% | – | 100.0%
CC[C@H](C)[C@H](NC(=O)[C@H](Cc1ccccc1)NC(=O)[C@H](Cc1ccc(O)cc1)NC(=O)[C@H](Cc1c[nH]cn1)NC(=O)[C@@H](NC(=O)[C@H](CCCCN)NC(=O)[C@H](CCCCN)NC(=O)CNC(=O)[C@H](CO)NC(=O)[C@H](Cc1ccc(O)c([N+](=O)[O-])c1)NC(C)=O)[C@@H](C)O)C(=O)N[C@@H](CC(=O)O)C(=O)N[C@@H](CC(C)C)C(=O)N[C@@H](CC(N)=O)C(=O)N[C@@H](CCCCN)C(=O)O [Peptide 9, Ac-nitroTyr-SGKKTHYFIDLN-K-OH] (Ac-[Tyr(3-NO2)]SGKKTHYFIDLNK-OH) | 99.2% | good cleavage efficiencies | 100.0%
CC[C@H](C)[C@H](NC(=O)[C@H](Cc1ccccc1)NC(=O)[C@H](Cc1ccc(O)cc1)NC(=O)[C@H](Cc1c[nH]cn1)NC(=O)[C@@H](NC(=O)[C@H](CC(C)C)NC(=O)[C@H](CCCCN)NC(=O)CNC(=O)[C@H](CO)NC(=O)[C@H](Cc1ccc(O)c([N+](=O)[O-])c1)NC(C)=O)[C@@H](C)O)C(=O)N[C@@H](CC(=O)O)C(=O)N[C@@H](CC(C)C)C(=O)N[C@@H](CC(N)=O)C(=O)N[C@@H](CCCCN)C(=O)O [Peptide 10, Ac-nitroTyr-SGKLTHYFIDLN-K-OH] (Ac-[Tyr(3-NO2)]SGKLTHYFIDLNK-OH) | 100% | – | 100.0%

Further lines, results first:

Percent Cleavage of Tag [by UV at 350 nm] [1] | cleavage efficiency in words [2] | Kusebauch 24 h, RT: Percent Cleavage of Tag [by UV350 - Peptide-Tag vs. Tag] [2] | Structure (SMILES)
100% | – | 100.0% | CC[C@H](C)[C@H](NC(=O)[C@H](Cc1ccccc1)NC(=O)[C@H](Cc1ccc(O)cc1)NC(=O)[C@H](Cc1c[nH]cn1)NC(=O)[C@@H](NC(=O)[C@H](CCSC)NC(=O)[C@H](CCCCN)NC(=O)CNC(=O)[C@H](CO)NC(=O)[C@H](Cc1ccc(O)c([N+](=O)[O-])c1)NC(C)=O)[C@@H](C)O)C(=O)N[C@@H](CC(=O)O)C(=O)N[C@@H](CC(C)C)C(=O)N[C@@H](CC(N)=O)C(=O)N[C@@H](CCCCN)C(=O)O [Peptide 11, Ac-nitroTyr-SGKMTHYFIDLN-K-OH] (Ac-[Tyr(3-NO2)]SGKMTHYFIDLNK-OH)
100% | – | – | CC[C@H](C)[C@H](NC(=O)[C@H](CC(C)C)NC(=O)[C@@H](N)CCC(=O)O)C(=O)N[C@@H](Cc1ccccc1)C(=O)N[C@@H](CCC(N)=O)C(=O)N[C@@H](CCC(=O)O)C(=O)N[C@H](C(=O)N[C@@H](C)C(=O)N[C@@H](CCCNC(=N)N)C(=O)N[C@@H](CO)C(=O)N[C@@H](C)C(=O)N[C@@H](Cc1ccc(O)c([N+](=O)[O-])c1)C(=O)NCC(=O)O)[C@@H](C)O [Peptide 22] (H-ELIFQETARSA[Tyr(3-NO2)]G-OH)
– | – | 100.0% | CC(=O)N[C@@H](Cc1ccc(O)c([N+](=O)[O-])c1)C(=O)N[C@@H](CO)C(=O)NCC(=O)N[C@@H](CCCCN)C(=O)N[C@@H](Cc1c[nH]c2ccccc12)C(=O)N[C@H](C(=O)N[C@@H](C)C(=O)N[C@@H](CC(C)C)C(=O)N[C@@H](CO)C(=O)N[C@@H](CC(C)C)C(=O)N[C@@H](CC(=O)O)C(=O)N[C@@H](CC(=O)O)C(=O)N[C@H](C(=O)N[C@@H](CCCCN)C(=O)O)C(C)C)C(C)C [Peptide 39, Ac-nitroTyr-SGKWVALSLDDV-K-OH] (Ac-[Tyr(3-NO2)]SGKWVALSLDDVK-OH)
– | – | 99.1% | CC(=O)N[C@@H](Cc1ccc(O)c([N+](=O)[O-])c1)C(=O)N[C@@H](CO)C(=O)NCC(=O)N[C@@H](CCCCN)C(=O)N[C@@H](Cc1ccc(O)cc1)C(=O)N[C@H](C(=O)N[C@@H](C)C(=O)N[C@@H](CC(C)C)C(=O)N[C@@H](CO)C(=O)N[C@@H](CC(C)C)C(=O)N[C@@H](CC(=O)O)C(=O)N[C@@H](CC(=O)O)C(=O)N[C@H](C(=O)N[C@@H](CCCCN)C(=O)O)C(C)C)C(C)C [Peptide 40, Ac-nitroTyr-SGKYVALSLDDV-K-OH] (Ac-[Tyr(3-NO2)]SGKYVALSLDDVK-OH)

Source: patent US20160223562A1, “Method for Determining the Concentration of a Peptide” (JPT Peptide Technologies GmbH, priority 2010, published 2016)
